Test results taken from ChEMBL document CHEMBL4811245, “Design, synthesis and biological evaluation of brain penetrant benzazepine-based histone deacetylase 6 inhibitors for alleviating stroke-induced brain infarction” (Eur J Med Chem, 2021).
Activity calls are given as the source filed them. The rule behind the calls is not given here.

Columns and labels:
Histone deacetylase 1 = Histone deacetylase 1 (Homo sapiens, UniProt Q13547); experiment: Inhibition of human HDAC1 preincubated for 15 mins followed by substrate addition by fluorescence-based assay
[1] = Ratio of drug concentration in brain to plasma of mouse at 5 to 50 mg/kg, ip after 2 hrs by HPLC/MS-MS analysis; type: ADME, organism-based; conditions: dose 5-50 mg/kg, read-out: BPR
[2] = biological target: T1, Protein deacetylase HDAC6 (Homo sapiens, UniProt Q9UBN7); experiment: Inhibition of human HDAC6 preincubated for 15 mins followed by substrate addition by fluorescence-based assay
T1 sequence (Q9UBN7 whole entry): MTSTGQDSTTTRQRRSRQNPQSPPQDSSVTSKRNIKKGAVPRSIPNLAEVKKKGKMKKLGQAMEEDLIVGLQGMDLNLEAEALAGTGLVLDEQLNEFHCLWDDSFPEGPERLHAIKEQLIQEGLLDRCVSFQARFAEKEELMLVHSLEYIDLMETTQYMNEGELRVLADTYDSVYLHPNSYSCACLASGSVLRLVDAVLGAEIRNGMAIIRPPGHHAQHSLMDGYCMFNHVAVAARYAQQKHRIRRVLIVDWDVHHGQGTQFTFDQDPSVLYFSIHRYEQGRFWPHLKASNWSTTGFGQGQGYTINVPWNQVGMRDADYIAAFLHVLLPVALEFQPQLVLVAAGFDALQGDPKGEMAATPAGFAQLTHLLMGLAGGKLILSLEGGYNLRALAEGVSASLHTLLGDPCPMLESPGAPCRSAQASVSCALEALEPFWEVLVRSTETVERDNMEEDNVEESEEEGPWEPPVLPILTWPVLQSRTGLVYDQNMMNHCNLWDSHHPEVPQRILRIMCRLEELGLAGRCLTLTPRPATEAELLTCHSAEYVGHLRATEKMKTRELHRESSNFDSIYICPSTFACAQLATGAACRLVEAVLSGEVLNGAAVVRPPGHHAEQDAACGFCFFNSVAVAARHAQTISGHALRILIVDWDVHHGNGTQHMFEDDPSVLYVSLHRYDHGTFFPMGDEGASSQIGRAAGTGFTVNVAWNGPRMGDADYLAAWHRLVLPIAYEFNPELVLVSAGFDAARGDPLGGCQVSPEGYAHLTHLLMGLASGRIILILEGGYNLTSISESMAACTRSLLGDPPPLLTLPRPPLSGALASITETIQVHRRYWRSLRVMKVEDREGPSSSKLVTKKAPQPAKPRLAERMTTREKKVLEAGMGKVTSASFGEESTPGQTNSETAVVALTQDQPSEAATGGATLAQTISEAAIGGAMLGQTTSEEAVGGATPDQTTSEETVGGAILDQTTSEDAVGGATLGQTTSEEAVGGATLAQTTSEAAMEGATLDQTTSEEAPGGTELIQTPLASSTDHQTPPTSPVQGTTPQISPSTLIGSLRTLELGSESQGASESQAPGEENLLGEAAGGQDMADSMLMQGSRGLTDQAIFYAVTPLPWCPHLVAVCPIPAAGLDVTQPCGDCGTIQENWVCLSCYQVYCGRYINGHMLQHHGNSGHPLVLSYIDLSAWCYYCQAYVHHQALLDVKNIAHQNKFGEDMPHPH

Rattus norvegicus [3] = experiment: Neuroprotective activity in Sprague-Dawley rat middle cerebral artery occlusion model assessed as reduction in neurobehavioral defects at 25 mg/kg, ip after 24 hrs by TTC staining based assay; type: functional, organism-based
Rattus norvegicus [4] = experiment: Neuroprotective activity in Sprague-Dawley rat middle cerebral artery occlusion model assessed as reduction in cerebral infarction at 25 mg/kg, ip after 24 hrs by TTC staining based assay (reference value: 21.22%); type: functional; parameters: scale not given: the % may be the effect or the level left
[5] = Drug concentration in plasma of C57 mouse at 20 mg/kg, ip measured after 4 hrs by LC/MS-MS analysis; type: ADME, organism-based
[6] = Drug concentration in plasma of C57 mouse at 20 mg/kg, ip measured after 1 hr by LC/MS-MS analysis; type: ADME, organism-based
[7] = Drug concentration in brain of C57 mouse at 20 mg/kg, ip measured after 1 hr by LC/MS-MS analysis; type: ADME, organism-based; conditions: read-out: Ct
[8] = Drug concentration in brain of C57 mouse at 20 mg/kg, ip measured after 4 hrs by LC/MS-MS analysis; type: ADME, organism-based; conditions: read-out: Ct
in vivo [9] = conditions: C57, mouse, brain/plasma, ip, 20 mg/kg
in vivo [10] = conditions: C57, mouse, brain/plasma, ip, 20 mg/kg; remark: listed apart in the source
[11] = Ratio of drug concentration in brain to plasma of Sprague-Dawley rat at 50 mg/kg, po measured after 60 to 180 mins by LC/MS-MS analysis; type: ADME, organism-based; conditions: time 60-180 min
Rattus norvegicus [12] = experiment: Neuroprotective activity in Sprague-Dawley rat middle cerebral artery occlusion model assessed as reduction in neurobehavioral defects at 5 mg/kg, ip after 24 hrs by TTC staining based assay; type: functional, organism-based
[13] = biological target: T2, Protein deacetylase HDAC6 (Homo sapiens) (UniProt Q9UBN7); experiment: Inhibition of HDAC6 in human SH-SY5Y cells assessed as fold increase in ratio of acetylated histone H3 to histone H3 at 10 uM incubated for 24 hrs by Western blot analysis; type: cell-based
T2 sequence (whole entry): T1 sequence (Q9UBN7 whole entry)

[14] = biological target: T2, Protein deacetylase HDAC6 (Homo sapiens); experiment: Inhibition of HDAC6 in human SH-SY5Y cells assessed as fold increase in ratio of acetylated alpha-tubulin to alpha-tubulin at 10 uM incubated for 24 hrs by Western blot analysis; type: cell-based
[15] = biological target: T2, Protein deacetylase HDAC6 (Homo sapiens); experiment: Inhibition of HDAC6 in human SH-SY5Y cells assessed as increase in acetylated alpha-tubulin levels incubated for 24 hrs by Western blot analysis; type: cell-based; conditions: dose 0.1-10 µM
[16] = biological target: T2, Protein deacetylase HDAC6 (Homo sapiens); experiment: Inhibition of HDAC6 in human SH-SY5Y cells assessed as fold increase in ratio of acetylated alpha-tubulin to alpha-tubulin at 1 uM incubated for 24 hrs by Western blot analysis; type: cell-based
[17] = biological target: T2, Protein deacetylase HDAC6 (Homo sapiens); experiment: Inhibition of HDAC6 in human SH-SY5Y cells assessed as increase in acetylated histone H3 levels at 0.1 to 10 uM incubated for 24 hrs by Western blot analysis; type: cell-based; conditions: dose 0.1-10 µM

Histone deacetylase 1, sequence (Q13547 whole entry): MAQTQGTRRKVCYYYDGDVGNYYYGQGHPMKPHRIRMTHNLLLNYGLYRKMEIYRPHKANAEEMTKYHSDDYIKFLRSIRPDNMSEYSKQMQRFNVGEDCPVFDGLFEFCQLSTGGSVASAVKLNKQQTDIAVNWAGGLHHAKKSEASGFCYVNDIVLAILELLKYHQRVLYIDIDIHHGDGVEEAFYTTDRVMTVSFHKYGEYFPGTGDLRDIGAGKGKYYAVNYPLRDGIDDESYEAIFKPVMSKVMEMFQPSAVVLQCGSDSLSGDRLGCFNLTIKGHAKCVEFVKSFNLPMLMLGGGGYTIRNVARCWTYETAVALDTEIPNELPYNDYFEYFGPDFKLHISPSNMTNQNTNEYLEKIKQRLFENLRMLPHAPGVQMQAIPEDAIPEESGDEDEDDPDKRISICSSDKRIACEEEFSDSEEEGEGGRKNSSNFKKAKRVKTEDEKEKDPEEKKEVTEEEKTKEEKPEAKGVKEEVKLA

In the case of `O=C(NO)c1ccc(CN2CCCCc3ccc(-c4ccccc4)cc32)cc1`, the IC50 (Histone deacetylase 1) is reported as 706 nM.
Work on `O=C(NO)c1cnc(NC2(c3cccc(F)c3)CCCCC2)nc1` yielded a Kp at 2 h [1] of 1.26.
With `COc1cc2c(cc1OC)N(Cc1ccc(C(=O)NO)cc1)CCCC2` the IC50 [2] was 14 nM and the IC50 (Histone deacetylase 1) was 295 nM.
In the case of `O=C(NO)c1ccc(CN2CCc3ccccc3CC2)cc1`, the IC50 [2] is reported as 255 nM and the IC50 (Histone deacetylase 1) is reported as 804 nM.
`COc1ccc(-c2ccccc2)c2c1CCN(Cc1ccc(C(=O)NO)cc1)CC2` showed an IC50 [2] of 497 nM and an IC50 (Histone deacetylase 1) of 826 nM.
With `CN1CCc2c(c3ccccc3n2Cc2ccc(C(=O)NO)cc2)C1` [TUBASTATIN A] the Activity (Rattus norvegicus [3]) was “Active”, the Activity (Rattus norvegicus [4]) was 13.02% and the Kp at 2 h [1] was 0.18.
With `O=C(NO)c1ccc(CN2CCCc3ccccc3C2)cc1` the IC50 [2] was 100 nM and the IC50 (Histone deacetylase 1) was 1000 nM.
Compound `COc1ccc(C2CC2)c2c1CCN(Cc1ccc(C(=O)NO)cc1)CC2` has an IC50 (Histone deacetylase 1) of 502 nM.
In the case of `COc1ccc2c(c1)N(Cc1ccc(C(=O)NO)cc1)CCCC2`, the Activity (Rattus norvegicus [3]) is reported as “Active”, the concentration at 4 h [5] is reported as 8.18 ng/mL and the concentration at 1 h [6] is reported as 526 ng/mL. It also gave a concentration at 1 h [7] of 957 ng/mL, a concentration at 4 h [8] of 18.7 ng/mL and a Kp at 4 h (in vivo [9]) of 2.29. For the same compound, the Kp at 1 h (in vivo [10]) was 1.85.
In the case of `O=C(NO)c1ccc(CNc2cccc3cccnc23)cc1`, the Kp [11] is reported as 1.01.
`O=C(NO)c1ccc(CN2CCCCc3ccc(F)cc32)cc1` gave an IC50 [2] of 19 nM and an IC50 (Histone deacetylase 1) of 761 nM.
For `Cc1ccc2c(c1)N(Cc1ccc(C(=O)NO)cc1)CCCC2`, the IC50 [2] was 12 nM and the IC50 (Histone deacetylase 1) was 377 nM.
`COc1ccc2c(c1)CCN(Cc1ccc(C(=O)NO)cc1)CC2` showed an IC50 [2] of 29 nM and an IC50 (Histone deacetylase 1) of 431 nM.
In the case of `O=C(NO)c1ccc(CN2CCCc3cc(Cl)ccc32)cc1`, the concentration at 4 h [5] is reported as 4.13 ng/mL, the concentration at 1 h [6] is reported as 256 ng/mL and the concentration at 1 h [7] is reported as 468 ng/mL. It also gave a concentration at 4 h [8] of 13.1 ng/mL.
`O=C(NO)c1ccc(CN2CCC[S+]([O-])c3ccccc32)cc1` (stereo not given) showed an IC50 [2] of 13 nM and an IC50 (Histone deacetylase 1) of 166 nM.
With `COc1cccc2c1CCN(Cc1ccc(C(=O)NO)cc1)CC2` the IC50 [2] was 318 nM and the IC50 (Histone deacetylase 1) was 798 nM.
Compound `O=C(NO)c1ccc(CN2CCCCc3ccc(C4CC4)cc32)cc1` has an IC50 (Histone deacetylase 1) of 509 nM.
For `COc1ccc(Br)c2c1CCN(Cc1ccc(C(=O)NO)cc1)CC2`, the IC50 [2] was 111 nM and the IC50 (Histone deacetylase 1) was 385 nM.
Work on `O=C(NO)c1ccc(CN2CCCCc3cc(Cl)ccc32)cc1` yielded an IC50 [2] of 37 nM and an IC50 (Histone deacetylase 1) of 819 nM.
Work on `O=C(NO)c1ccc(CN2CCCCc3ccccc32)cc1` yielded an IC50 [2] of 6.4 nM and an IC50 (Histone deacetylase 1) of 392 nM.
In the case of `O=C(NO)c1cnc(NC2(c3ccccc3)CC2)nc1`, the Kp at 2 h [1] is reported as 1.22.
With `CCCCC1OC(=O)c2ccccc21` (stereo not given) the Activity (Rattus norvegicus [12]) was “Active”.
In the case of `O=C(NO)c1ccc(CN2CCCOc3ccccc32)cc1`, the concentration at 4 h [5] is reported as 4.29 ng/mL, the concentration at 1 h [6] is reported as 59.4 ng/mL and the concentration at 1 h [7] is reported as 111 ng/mL. For the same compound, the concentration at 4 h [8] was 12.2 ng/mL, the Kp at 4 h (in vivo [9]) was 2.88 and the Kp at 1 h (in vivo [10]) was 1.98.
For `O=C(NO)c1ccc(CN2CCCSc3ccccc32)cc1`, the Activity (Rattus norvegicus [3]) was “Active”, the concentration at 4 h [5] was 7.03 ng/mL and the concentration at 1 h [6] was 96.1 ng/mL. For the same compound, the FC [13] was 1.1, the concentration at 1 h [7] was 220 ng/mL and the FC [14] was 1.4. For the same compound, the concentration at 4 h [8] was 16.6 ng/mL, the IC50 [2] was 1.8 nM and the inhibition [15] was “Dose-Dependent Effect”. The Activity (Rattus norvegicus [4]) was 11.47%, the Kp at 4 h (in vivo [9]) was 2.35 and the FC [16] was 1.3. For the same compound, the Kp at 1 h (in vivo [10]) was 2.3 and the inhibition [17] was “Active”.
